This note sets out measurements from ChEMBL document CHEMBL1681745, “Synthesis and photophysical properties of new SNARF derivatives as dual emission pH sensors” (Bioorg Med Chem Lett, 2011).

Each structure is given as a SMILES string.

The subject of one data set is V79. Kind of data set: Cellular uptake in chinese hamster V79 cells at 10 uM after 1 hr by flow cytometry. Type of data set: ADME, cell-based, Cricetulus griseus. Conditions: v79, 1 h; call rule not given here. In general terms: A flow cytometer gives signals particle by particle.
Data set [1] can be described thus: Dissociation constant, pKa of the compound by UV spectrum analysis. The class given is physicochemical.

For the compound `C[N+](C)=c1ccc2c(-c3ccccc3C(=O)O)c3ccc4cc(O)ccc4c3oc-2c1`, the Drug uptake result in the data set on V79 is on record as “Active”. This compound also showed a pKa in data set [1] of 7.62.

For the compound `CN(C)c1ccc2c(c1)Oc1c(ccc3cc(O)ccc13)C21OC(=O)c2c(Cl)c(Cl)c(Cl)c(Cl)c21` (stereo unspecified), in the data set with V79, the Drug uptake result is given as “Active”. The pKa in data set [1] amounted to 7.9.

Regarding `CN(C)c1ccc2c(c1)Oc1c(ccc3cc(O)ccc13)C21OC(=O)c2c(F)c(F)c(F)c(F)c21` (stereo unspecified), the Drug uptake result in the data set with V79 is listed as “Active”. Besides, in data set [1], the pKa was 7.38.

Usually pKa stands for the negative logarithm of the acid dissociation constant.
